Experimental data as given in PubChem BioAssay AID248 (DTP/NCI, 2004).
“And” between values parts separate entries of the source, which are not always exact repeats. Identical values can stand only once. Toxic doses and inconclusive results are not listed. Rule as the data show it: active = T/C of 150% or more; inactive = T/C below 125%.

Test system: L1210 leukemia ip in BDF1 mice, survival T/C
Assay: NCI In Vivo Anticancer Drug Screen. Data for tumor model L1210 Leukemia (intraperitoneal) in B6D2F1 (BDF1) mice
Conditions: endpoint: mean survival time, higher = longer survival
Summary of the method: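 In this screen, tumor-bearing mice given compound are compared to those given vehicle, and their survival values are reported as a treated-to-control quotient.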

[1] = dose: 50.0 mg/kg/injection, schedule: Q01DX001 (ip), vehicle: carboxymethylcellulose (CMC)
[2] = dose: 100.0 mg/kg/injection, schedule: Q01DX001 (ip), vehicle: carboxymethylcellulose (CMC)
[3] = dose: 200.0 mg/kg/injection, schedule: Q01DX001 (ip), vehicle: carboxymethylcellulose (CMC)
[4] = dose: 100.0 mg/kg/injection, schedule: Q04DX002 (ip), vehicle: saline with Tween-80
[5] = dose: 200.0 mg/kg/injection, schedule: Q04DX002 (ip), vehicle: saline with Tween-80
[6] = dose: 400.0 mg/kg/injection, schedule: Q04DX002 (ip), vehicle: saline with Tween-80
[7] = dose: 100.0 mg/kg/injection, schedule: Q04DX003 (ip), vehicle: saline with Tween-80
[8] = dose: 200.0 mg/kg/injection, schedule: Q04DX003 (ip), vehicle: saline with Tween-80
[9] = dose: 400.0 mg/kg/injection, schedule: Q04DX003 (ip), vehicle: saline with Tween-80
[10] = dose: 100.0 mg/kg/injection, schedule: Q01DX009 (ip), vehicle: saline
[11] = dose: 200.0 mg/kg/injection, schedule: Q01DX009 (ip), vehicle: saline
[12] = dose: 400.0 mg/kg/injection, schedule: Q01DX009 (ip), vehicle: saline
[13] = dose: 100.0 mg/kg/injection, schedule: Q01DX009 (ip), vehicle: Klucel (hydroxypropylcellulose) (HPC)
[14] = dose: 200.0 mg/kg/injection, schedule: Q01DX009 (ip), vehicle: Klucel (hydroxypropylcellulose) (HPC)
[15] = dose: 400.0 mg/kg/injection, schedule: Q01DX009 (ip), vehicle: Klucel (hydroxypropylcellulose) (HPC)

Measured: T/C

CCOc1cc(/C=N\Nc2nncn2N)c(C)cc1N(CCCl)CCCl
inactive: dose: 1.3 mg/kg/injection, schedule: Q01DX015 (ip), vehicle: carboxymethylcellulose (CMC) 107 % of control | dose: 1.5 mg/kg/injection, schedule: Q01DX015 (ip), vehicle: carboxymethylcellulose (CMC) 120 % of control | dose: 2.6 mg/kg/injection, schedule: Q01DX015 (ip), vehicle: carboxymethylcellulose (CMC) 100 % of control | dose: 15.0 mg/kg/injection, schedule: Q01DX015 (ip), vehicle: carboxymethylcellulose (CMC) 102 % of control and 109 % of control | dose: 22.0 mg/kg/injection, schedule: Q01DX001 (ip), vehicle: carboxymethylcellulose (CMC) 118 % of control | [1] 110 % of control | [2] 123 % of control | [3] 89 % of control

OC1COC(c2ccccc2)OC1C(O)C1OC(c2ccccc2)OCC1O (stereo not given)
inactive: [4] 89 % of control | [5] 105 % of control | [6] 102 % of control

O=C(NCCCCCCCCCCNC(=O)Nc1ccc(C2=NCC(O)CN2)cc1)Nc1ccc(C2=NCC(O)CN2)cc1 (stereo not given)
inactive: dose: 4.0 mg/kg/injection, schedule: Q01DX Z (ip), vehicle: water 117 % of control | dose: 8.0 mg/kg/injection, schedule: Q01DX Z (ip), vehicle: water 112 % of control | dose: 16.0 mg/kg/injection, schedule: Q01DX Z (ip), vehicle: water 106 % of control

O=C1c2ccccc2-c2ccc(-c3ccccc3)c3ccc(CCc4ccccc4)c1c23
inactive: [7] 100 % of control | [8] 89 % of control | [9] 89 % of control

CC(=O)NC(CO)(CO)CO
inactive: dose: 100.0 mg/kg/injection, schedule: Q01DX001 (ip), vehicle: saline 94 % of control | [10] 94 % of control | dose: 200.0 mg/kg/injection, schedule: Q01DX001 (ip), vehicle: saline 102 % of control | [11] 89 % of control | dose: 400.0 mg/kg/injection, schedule: Q01DX001 (ip), vehicle: saline 98 % of control | [12] 90 % of control

C=C1CC(C)(c2ccc(S(=O)(=O)N3CCCC3)cc2)OC1=O (stereo not given)
inactive: dose: 18.0 mg/kg/injection, schedule: Q01DX009 (ip), vehicle: Klucel (hydroxypropylcellulose) (HPC) 108 % of control | dose: 37.5 mg/kg/injection, schedule: Q01DX009 (ip), vehicle: Klucel (hydroxypropylcellulose) (HPC) 95 % of control | dose: 75.0 mg/kg/injection, schedule: Q01DX009 (ip), vehicle: Klucel (hydroxypropylcellulose) (HPC) 104 % of control | dose: 87.5 mg/kg/injection, schedule: Q01DX009 (ip), vehicle: Klucel (hydroxypropylcellulose) (HPC) 104 % of control

COC(=O)c1ccc(OC(=O)Nc2ccc(C)cc2)cc1
inactive: [13] 101 % of control | [14] 100 % of control | [15] 101 % of control

O=C1NC(=S)SC1N=Nc1ccc(S(=O)(=O)Nc2ncccn2)cc1 (stereo not given)
inactive: dose: 75.0 mg/kg/injection, schedule: Q01DX001 (ip), vehicle: saline 104 % of control | dose: 150.0 mg/kg/injection, schedule: Q01DX001 (ip), vehicle: saline 102 % of control | dose: 300.0 mg/kg/injection, schedule: Q01DX001 (ip), vehicle: saline 100 % of control

CC1(C)C(c2ccccc2)=NN=C1c1ccccc1
inactive: dose: 100.0 mg/kg/injection, schedule: Q01DX009 (ip), vehicle: saline with Tween-80 93 % of control | [7] 90 % of control | dose: 200.0 mg/kg/injection, schedule: Q01DX009 (ip), vehicle: saline with Tween-80 91 % of control | [8] 104 % of control | dose: 400.0 mg/kg/injection, schedule: Q01DX009 (ip), vehicle: saline with Tween-80 112 % of control | [9] 104 % of control

CCOC(=O)C(=O)Nc1ccc([N+](=O)[O-])cc1
inactive: [7] 87 % of control | [8] 98 % of control | [9] 87 % of control

CCOc1ccc2nc(C)sc2c1
inactive: dose: 100.0 mg/kg/injection, schedule: Q04DX003 (ip), vehicle: acetone 97 % of control | dose: 200.0 mg/kg/injection, schedule: Q04DX003 (ip), vehicle: acetone 95 % of control | dose: 400.0 mg/kg/injection, schedule: Q04DX003 (ip), vehicle: acetone 93 % of control

CCOC(=O)CC(N)C(=O)OCC (stereo not given)
inactive: [10] 98 % of control | dose: 100.0 mg/kg/injection, schedule: Q04DX003 (ip), vehicle: Klucel (hydroxypropylcellulose) (HPC) 99 % of control | dose: 100.0 mg/kg/injection, schedule: Q04DX003 (ip), vehicle: saline 88 % of control | [11] 95 % of control | dose: 200.0 mg/kg/injection, schedule: Q04DX003 (ip), vehicle: Klucel (hydroxypropylcellulose) (HPC) 100 % of control | dose: 200.0 mg/kg/injection, schedule: Q04DX003 (ip), vehicle: saline 93 % of control | [12] 97 % of control | dose: 400.0 mg/kg/injection, schedule: Q04DX003 (ip), vehicle: Klucel (hydroxypropylcellulose) (HPC) 87 % of control | dose: 400.0 mg/kg/injection, schedule: Q04DX003 (ip), vehicle: saline 102 % of control

CC(=O)N(C)C1=C(Sc2ccc(Cl)cc2)C(=O)c2ccccc2C1=O
inactive: dose: 75.0 mg/kg/injection, schedule: Q01DX001 (ip), vehicle: carboxymethylcellulose (CMC) 91 % of control | dose: 150.0 mg/kg/injection, schedule: Q01DX001 (ip), vehicle: carboxymethylcellulose (CMC) 88 % of control

c1ccc(Nc2nc3ccccc3o2)cc1
inactive: dose: 100.0 mg/kg/injection, schedule: Q01DX001 (ip), vehicle: Klucel (hydroxypropylcellulose) (HPC) 93 % of control | [13] 92 % of control | dose: 200.0 mg/kg/injection, schedule: Q01DX001 (ip), vehicle: Klucel (hydroxypropylcellulose) (HPC) 89 % of control | [14] 95 % of control | dose: 400.0 mg/kg/injection, schedule: Q01DX001 (ip), vehicle: Klucel (hydroxypropylcellulose) (HPC) 86 % of control | [15] 94 % of control

CCCCCCCCCCCC(c1ccccc1)[N+](C)(C)Cc1ccccc1 (stereo not given)
inactive: dose: 0.25 mg/kg/injection, schedule: Q01DX015 (ip), vehicle: saline 108 % of control | dose: 0.5 mg/kg/injection, schedule: Q01DX015 (ip), vehicle: saline 103 % of control | dose: 1.0 mg/kg/injection, schedule: Q01DX015 (ip), vehicle: saline 115 % of control | dose: 2.0 mg/kg/injection, schedule: Q01DX015 (ip), vehicle: saline 114 % of control | dose: 2.5 mg/kg/injection, schedule: Q01DX001 (ip), vehicle: carboxymethylcellulose (CMC) 93 % of control

CC(=O)OCCC(COC(C)=O)n1ccc(=O)[nH]c1=O (stereo not given)
inactive: [4] 91 % of control | [5] 105 % of control | [6] 102 % of control

O=S1(=O)CC2C1C1(Cl)C(Cl)=C(Cl)C2(Cl)C1(Cl)Cl (stereo not given)
inactive: [1] 100 % of control | [2] 91 % of control | [3] 96 % of control | dose: 400.0 mg/kg/injection, schedule: Q01DX001 (ip), vehicle: carboxymethylcellulose (CMC) 96 % of control

CC(=O)OCC(OC(C)=O)C(OC(C)=O)C(C#N)OC(C)=O (stereo not given)
inactive: dose: 12.5 mg/kg/injection, schedule: Q01DX009 (ip), vehicle: Klucel (hydroxypropylcellulose) (HPC) 95 % of control | dose: 12.5 mg/kg/injection, schedule: Q04DX003 (ip), vehicle: Klucel (hydroxypropylcellulose) (HPC) 102 % of control | dose: 25.0 mg/kg/injection, schedule: Q01DX009 (ip), vehicle: Klucel (hydroxypropylcellulose) (HPC) 95 % of control | dose: 25.0 mg/kg/injection, schedule: Q04DX003 (ip), vehicle: Klucel (hydroxypropylcellulose) (HPC) 96 % of control | dose: 50.0 mg/kg/injection, schedule: Q01DX009 (ip), vehicle: Klucel (hydroxypropylcellulose) (HPC) 102 % of control | dose: 50.0 mg/kg/injection, schedule: Q04DX003 (ip), vehicle: Klucel (hydroxypropylcellulose) (HPC) 102 % of control | [7] 102 % of control | [8] 102 % of control

CCCN(CCC)C[Si](C)(C)C
inactive: dose: 12.5 mg/kg/injection, schedule: Q01DX001 (ip), vehicle: saline 121 % of control | dose: 25.0 mg/kg/injection, schedule: Q01DX001 (ip), vehicle: saline 105 % of control | dose: 50.0 mg/kg/injection, schedule: Q01DX001 (ip), vehicle: saline 111 % of control
